In patent publication US7452908B2, “Amide derivatives” (Banyu Pharmaceutical Co., Ltd., priority 1999, dated 2008):

Tests used:
[1] = target: T1, human m5 muscarinic acetylcholine receptor expressed in CHO cells (Homo sapiens, UniProt P08912); assay: Inhibition of [3H]-N-methylscopolamine binding to muscarinic m5 receptor; conditions: 0.2 nM [3H]-N-methylscopolamine
T1 construct: purchased Receptor Biology, Inc; host or cells: CHO cells
T1 sequence (P08912 1-532): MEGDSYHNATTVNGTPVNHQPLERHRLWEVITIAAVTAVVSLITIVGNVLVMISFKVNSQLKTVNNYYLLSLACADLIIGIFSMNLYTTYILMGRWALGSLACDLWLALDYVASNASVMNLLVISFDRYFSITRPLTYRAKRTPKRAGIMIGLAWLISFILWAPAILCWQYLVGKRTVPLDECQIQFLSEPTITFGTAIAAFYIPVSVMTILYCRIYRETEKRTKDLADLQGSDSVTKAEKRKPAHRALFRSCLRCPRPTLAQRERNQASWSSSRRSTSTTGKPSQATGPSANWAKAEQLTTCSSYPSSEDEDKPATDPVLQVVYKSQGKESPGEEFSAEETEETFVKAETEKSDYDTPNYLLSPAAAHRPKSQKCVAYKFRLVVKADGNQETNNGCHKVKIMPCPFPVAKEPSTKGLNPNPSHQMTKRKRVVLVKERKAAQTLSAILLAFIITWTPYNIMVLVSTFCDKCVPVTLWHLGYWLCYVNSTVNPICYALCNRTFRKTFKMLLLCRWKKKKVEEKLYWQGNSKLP
Method: These tests were performed according to a modification of the method of Hargreaves, et al. (Br. J. Pharmacol. 107: 494-501, 1992). Namely, muscarinic acetylcholine receptors of human m1, m2, m3, m4 and m5 expressed in CHO cells (Receptor Biology, Inc.) were incubated with 0.2 nM [^3H]-N-methylscopolamine (82Ci/mmol, New England Nuclear, Inc.) and a test compound to be tested in 0.5 ml of 50 mM Tris-HCl, 10 mM MgCl2, 1 mM EDTA solution (pH 7.4) for 120 minutes at room temperature (about 20-25° C.), followed by suction filtration over a glass filter (UniFilter plate-GF/C; Packard). Then the filter was washed four times with 1 ml of ice-cold Tris-HCl buffer and dried at 50° C. for an hour. After adding a scintillator (Microscinti 0; Packard), the radioactivity of [^3H]-N-methylscopolamine binding to the filter was counted with a microplate scintillation counter (TopCount™; Packard). Non-specific receptor binding of [^3H]-N-methylscopolamine was measured by adding 1 μM N-methylscopolamine.

M1 receptor = target: T2, M1 receptor (Rattus norvegicus, UniProt P08482); assay: Antagonism to M1 receptor in vivo: McNeil-A-343-induced vasopressor reaction in cervical vertebrae-separated rats; conditions: iv, McNeil-A-343 (0.3 mg/kg) 5 minutes after test compound
T2 construct: from tissue; host or cells: whole animal, male SD rats (in vivo)
T2 sequence (P08482 1-460): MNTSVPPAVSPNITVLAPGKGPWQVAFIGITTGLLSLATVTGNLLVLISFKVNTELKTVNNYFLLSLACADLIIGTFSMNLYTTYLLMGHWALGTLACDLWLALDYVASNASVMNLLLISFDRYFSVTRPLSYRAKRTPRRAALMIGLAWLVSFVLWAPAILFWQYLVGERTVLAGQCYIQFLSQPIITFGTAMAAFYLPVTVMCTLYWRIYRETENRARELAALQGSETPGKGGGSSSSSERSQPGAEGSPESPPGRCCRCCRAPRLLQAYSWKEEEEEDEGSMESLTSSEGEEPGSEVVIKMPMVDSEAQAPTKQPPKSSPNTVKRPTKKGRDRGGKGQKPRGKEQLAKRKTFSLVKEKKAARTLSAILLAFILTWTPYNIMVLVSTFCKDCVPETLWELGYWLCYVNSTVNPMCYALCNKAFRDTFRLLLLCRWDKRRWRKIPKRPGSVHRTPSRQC
Method: Male SD strain rats (weighing 300-500 g) were anesthetized with intraperitoneal administration of pentobarbital (50 mg/kg). Each rat's airway was cannulated by laryngotomy. Also by femoral incision, femoral artery and vein were isolated each and cannulated, which were used as routes for heart rate counting and chemical administration, respectively. Using a pulmotor for small animals (Type 7025, Ugo Basile Co.), artificial respiration was conducted under the conditions of ventilation rate of 6 ml/kg per breath and respiration rate of 90 breaths/min. The heart rate and blood pressure variations were measured with a heart rate counter (AT-601 G, Nippon Koden Co.) and a tonometer (AP-641G, Nippon Koden Co.), via a pressure transducer (DX-312, Nippon Koden Co.). After the blood pressure was stabilized, the cervical vertebrae was separated with an injection needle pricked from the occipital region. […] Five (5) minutes thereafter, McNeil-A-343 (0.3 mg/kg) was intravenously administered, and whereby induced hypertension variation was recorded. In this experiment one-dose evaluation per one animal was conducted. The inhibitory effect (inhibition ratio) of the test compound on the McNeil-A-343-induced vasopressor reaction was determined by the following equation: […]

M3 receptor = target: T3, M3 receptor (Canis lupus familiaris, UniProt A0A8I3N190); assay: Antagonism to M3 receptor: bronchodilation in anesthetized dogs (methacholine provocation test); format: in vivo, beagle dogs; conditions: inhalation of 1 mg/ml for 10 minutes, methacholine threshold four hours after administration
T3 construct: from tissue; host or cells: whole animal, male beagle dogs (in vivo, airway)
Method: The bronchodilation action of inhaled test compound was evaluated by measuring the compounds' inhibitory action on respiratory resistance-increasing reaction induced by a methacholine provocation test. For the experiment, 12 to 36 months old male beagle dogs (weighing 10-15 kg) were used. After being anesthetized by intravenous pentobarbital administration (30 mg/kg), the dogs were intubated cannulae in their trachea. After their respiration became stable, the cannulae were connected with Astograph (TCK-6100H, Chest) and a methacholine provocation test by 3 Hz oscillation method was conducted. […] The methacholine concentration at which the respiratory resistance increased to twice the initial value was recorded as the methacholine reaction threshold value. Before evaluating the test compounds, the methacholine reaction threshold value^1) under no drug treatment was measured at least twice at a week's interval, to select the dogs showing reproducible reaction.
The inhaling administration of each test compound (1 mg/ml) was conducted for 10 minutes under pentobarbital anesthetization (30 mg/kg, i.v.), with the nebulizer in the Astograph. […] The bronchodilator activity (shift value) of each tested compound was determined according to the following equation: […]

T3 sequence (A0A8I3N190 1-590): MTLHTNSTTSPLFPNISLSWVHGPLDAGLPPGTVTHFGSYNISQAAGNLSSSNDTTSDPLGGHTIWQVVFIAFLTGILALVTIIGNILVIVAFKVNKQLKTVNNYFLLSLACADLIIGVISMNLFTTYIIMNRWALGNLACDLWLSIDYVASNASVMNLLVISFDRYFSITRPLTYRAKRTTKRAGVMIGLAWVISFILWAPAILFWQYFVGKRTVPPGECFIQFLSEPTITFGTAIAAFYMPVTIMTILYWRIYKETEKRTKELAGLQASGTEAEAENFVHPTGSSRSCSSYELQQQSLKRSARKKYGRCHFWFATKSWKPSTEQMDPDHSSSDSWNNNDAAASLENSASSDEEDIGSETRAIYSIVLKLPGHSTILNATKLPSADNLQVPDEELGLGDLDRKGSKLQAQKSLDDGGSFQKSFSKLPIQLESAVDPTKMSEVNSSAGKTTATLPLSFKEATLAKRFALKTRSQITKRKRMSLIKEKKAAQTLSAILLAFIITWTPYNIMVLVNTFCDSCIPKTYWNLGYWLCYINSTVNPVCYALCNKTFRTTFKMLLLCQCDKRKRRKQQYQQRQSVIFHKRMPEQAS

| Ki [1] | ED50 (M1 receptor) | Shift (fold) Airway constriction M3 (M3 receptor) | SMILES |
| --- | --- | --- | --- |
| 32 nM | > 3 mg/kg | – | O=C(CCNC(=O)CNC(=O)CC(c1ccccc1)(c1ccccc1)c1ccccc1)NC[C@H]1CCCN(CC2CCCCC2)C1 [Example 12, N-{2-(3-{((3R)-1-cyclohexylmethyl-3-piperidyl)methyl}amino-3-oxopropyl)amino-2-oxoethyl}-3,3,3-triphenyloropanamide] |
| 1600 nM | > 0.3 mg/kg | 20.2 fold | CC[N+]1(CC)CCC[C@H](CNC(=O)[C@H]2CCCN2C(=O)[C@@H]2C[C@@H](O)CN2C(=O)CC(c2ccccc2)(c2ccccc2)c2ccccc2)C1.[Cl-] [Example 133, (3R)-1,1-diethyl-3-({({(2R)-1-({(2S,4R)-4-hydroxy-1-(3,3,3-triphenylpropanoyl)-2-pyrrolidinyl}carbonyl)-2-pyrrolidinyl}carbonyl)amino}methyl)piperidinium chloride] |
